Measurements from patent US20180078576A1, “SULPHATED XYLANS FOR TREATMENT OR PROPHYLAXIS OF RESPIRATORY DISEASES” (Paradigm Biopharmaceuticals Limited, priority 2007, published 2018).
Marks after values point to notes of the source that are not given here.

What was measured:
[1] = test system: Guinea-pigs sensitized to ovalbumin; assay: Guinea pig model of asthma, airway hyper-reactivity 24 h after OVA challenge; assay type: in vivo; conditions: for Cdyn, % increase from that of the positive control / RL, % decrease from that of the positive control: Dexamethasone 15 mg/kg, glycan compounds 10 mg/kg, intratracheal microspray
Protocol: A guinea pig model of asthma was used. Guinea-pigs (8 per group) were sensitized to ovalbumin by two intraperitoneal injections of ovalbumin (grade V, 20 μg) in aluminium hydroxide gel on Days 1 and 11. On day 20 (24 hours prior to assessing airway hyper-reactivity (AHR)) each animal received a challenge dose of OVA—this took the form of a 1 hour aerosol exposure of OVA (10 μg). The negative control animals received, no sensitization and no challenge. The positive controls were sensitized and challenged but were either given no further treatment or were treated with vehicle (saline). Test compounds (PPS and the sulfated xylan pentasaccharide) and vehicle were administered by intratracheal administration as an aqueous microspray using a Penn Century device. The device used was the FMJ250 high pressure syringe and a 1A-1C microspray delivery tube. The particle size delivery goes up to 32 μm. During the study the volume delivered was 100 ul for all test formulations. The test compounds were administered 30 min before challenge with OVA. The animals underwent surgery 24 hours after challenge to insert a cannula into the trachea, the cannula was connected to the instrumentation which measured pressure and changes in airflow. After surgery the animals were allowed to stabilize for 10 min before baseline readings were taken. Bronchoconstriction was evoked with aerosolized methacholine (10 mg/ml and 30 mg/ml) for 20 seconds. The difference between baseline readings and that obtained after methacholine were used to calculate Cdyn and RL. Thus, measurements of lung function were taken approximately 25 hours after the drug was administered. Both pentosan polysulfate and the sulfated xylan pentasaccharide when administered at 10 mg/kg were effective in reducing the airway hyper-reactivity readings. Their efficacy was approximately equivalent to that usually seen with 7.5 mg/kg of dexamethasone in this model.

[2] = test system: guinea pigs sensitized with ovalbumin (OVA) and challenged intranasally with OVA; assay: Allergic rhinitis model in the guinea pig (OVA); assay type: in vivo
Protocol: An allergic rhinitis model in the guinea pig was used. The guinea pigs are sensitized to ovalbumin (OVA) twice (on days 0 and 7) by an intraperitoneal injection of 0.5 ml saline containing 100 mg Al(OH)3 and 2 μg OVA. Three weeks after the last sensitization, animals are anaesthetized and the exposure of the nasal cavity to allergen is performed by dropping OVA solution at 20 mg/ml into bilateral nasal cavities. For the negative control the animals receive sensitization and challenge with saline. The animals are pretreated with either vehicle or drug (pentosan polysulfate or Budesonide) 30 min prior to intranasal instillation of OVA. Vehicle or drugs are administered, 25 μl-50 μl/nostril. A comparison of the pentosan polysulfate with Budesomde, as the reference compound, is included. Animals are terminated and all parameters measured eight hours after the provocation.
The nasal mucosal barrier permeability is assessed by measuring the leakage of protein-rich and non-sieved plasma into the nasal cavities. The amount of extravasated plasma is indicated as nasal lavage levels of total protein or albumin. Nasal lavage fluid is collected by gently rinsing the nasal cavities with phosphate buffered saline. The cells in this fluid are centrifuged and resuspended in phosphate buffered saline and counted using a semiautomated haematology analyzer. The cell composition of the nasal lavage is determined after a cytospin and staining with May Grynwald Giemsa.

[3] = test system: male C57Bl/6J mice exposed to cigarette smoke; assay: Mouse model of emphysema/COPD, acute cigarette smoke exposure; assay type: in vivo; conditions: PPS inhaled 30 minutes before
Protocol: A mouse model of emphysema was used. Acute and chronic exposure of mice to cigarette smoke lead to lung responses that in part mimic the inflammatory and structural changes observed in COPD. In this model male C57Bl/6J mice are subjected to acute and chronic smoke exposure, with normal room air being the control situation. In the acute study mice were exposed to either room air or to the smoke of five cigarettes (approximately 12 mg of tar and 0.9 mg of nicotine) for 20 minutes. In the chronic study mice were exposed to either room air or to the smoke of three cigarettes/day for 5 days/week for 6 months. The 4 groups of mice were then further divided so that mice within each group also received PPS via an inhaled route.
In the acute exposure groups of mice pentosan polysulfate was given 30 minutes before exposure to cigarette smoke. Assessment of the efficacy of the drug for mice in the acute exposure groups involved assessment of trolox equivalent anti-oxidant capacity of the bronchoalveolar lavage fluid (BALF) at the end of smoke exposure. The BALF was examined for cytokines and chemokines that are associated with an inflammatory response. The levels of these agents were determined at 4 hours after exposure and at 24 hours after cigarette smoke exposure. A range of cytokines and chemokines was measured. […] A differential cell count of the cells in the BALF was also determined.

Human leukocyte elastase = target: T1, Human leukocyte elastase (Homo sapiens, UniProt P08246); assay: Elastase assay with fluorogenic substrate; assay type: biochemical; conditions: fluorogenic substrate MeOSuc-Ala-Ala-Pro-Val-amido-methylcoumarin, pH 7.4, 37° C., 60 minutes; read-out: IC50, inhibition of human leukocyte elastase activity
T1 sequence (P08246 30-267): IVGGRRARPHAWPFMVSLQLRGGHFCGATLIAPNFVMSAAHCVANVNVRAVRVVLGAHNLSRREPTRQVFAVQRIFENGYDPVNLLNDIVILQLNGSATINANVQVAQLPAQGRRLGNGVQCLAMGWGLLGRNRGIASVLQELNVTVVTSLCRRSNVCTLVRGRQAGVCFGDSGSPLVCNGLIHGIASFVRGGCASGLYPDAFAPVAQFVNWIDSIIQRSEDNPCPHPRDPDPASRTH
Protocol: Elastase is a protein that is a potential target for the treatment of COPD. Elastase assays were performed in 96-well plastic microplates for easy quantification by the fluorescent plate reader. Human leukocyte elastase (5 nM/well) was incubated in the presence of absence of pentosan polysulfate, or other sulfated polysaccharides, with the fluorogenic substrate MeOSuc-Ala-Ala-Pro-Val-amido-methylcoumarin (20 μM/well) in a sodium phosphate buffer, pH 7.4. The mixture was incubated at 37° C. for 60 minutes before the reaction was stopped by the addition of 10 μl/well of […] acetic acid and the mixture transferred to a 96-well microplate with fluorescence being measured using an excitation wavelength of 355 nm and an emission wavelength of 460 nm. Various concentrations of inhibitors were used to allow the calculation of the concentration of polysaccharide required to inhibit enzyme activity by 50% (IC50).

IC50 (Human leukocyte elastase): ~1.8 µM
Substance: Pentosan polysulfate [PPS]
Reduction of airway hyper-reactivity readings (in words) ([1]; 10 mg/kg intratracheal microspray 30 min before OVA challenge): effective | Cdyn, % increase from that of the positive control ([1]; MCh 10 mg/ml): 38% * | RL, % decrease from that of the positive control ([1]; MCh 10 mg/ml): 32% | Cdyn, % increase from that of the positive control ([1]; MCh 30 mg/ml): 49% ** | RL, % decrease from that of the positive control ([1]; MCh 30 mg/ml): 35% ** | Leukocyte infiltration into nasal lavage fluid (total white cell numbers) ([2]; 8 hours after intranasal OVA challenge, FIG. 12): inhibited leukocyte infiltration at all the concentrations tested | Protein content of nasal lavage fluid (plasma exudation) ([2]; 8 hours after intranasal OVA challenge, drug intranasal 30 min before, FIG. 11): significantly reduced | Cellular infiltrate in nasal lavage fluid ([2]; drugs at 5 mg/kg, FIG. 13): markedly reduced | Cellular infiltrate into BALF [3]: decreased | Numbers of neutrophils in BALF [3]: significantly attenuated
